Results on 8 compounds are retold here after patent US5324730A, “Phenoxyphosphoryloxymethyl cyclobutyl purines” (Nippon Kayaku Kabushiki Kaisha, priority 1990, dated 1994).

Values after ≈ are worked out from the molar mass of the structure shown.

Data set [1] can be described thus: Oral absorbability: plasma concentration of Compound 1a (B^1 = 9-guanyl) in mice after oral or intravenous administration (Method 4). The note with it: Compound 1a (B^1 = 9-guanyl) in plasma, male CDF1 mice; for AUC, intravenous injection / Tmax, intravenous injection: 75 μM/kg intravenous; for AUC, oral administration / Tmax, oral administration: 75 μM/kg oral. The data set is classed as in vivo. On the procedure:
Oral absorbability of compounds of this invention were tested according to the following method.
Male CDF1 mice (6-8 weeks in age) (Japan Charles Liver Co.) were used. Each substance to be tested was dissolved into physiological salt solution, and its 75 μM/kg dosage (0.1-0.5 ml/10 g dosage) was administered orally or intravenously. Ten minutes, thirty minutes, one hour and 3 hours after the administration, blood was taken from 2-3 heads of mice by means of an injection tube previously treated with heparin, and the blood was centrifuged at 3,000 rpm for 10 minutes to obtain a plasma. To 200 μl of the plasma was added 9-[2-hydroxy-3-hydroxymethylcyclobutan-1-yl]-guanine (2 μg/10 μl […]) as an internal standard. After diluting it with 4 ml of water, it was washed with 2 ml of water by the use of Ceppack C18 Cartridge (Millipore Waters Co.). It was eluted with 5 ml of methanol, concentrated to dryness, re-dissolved into 200 μl of water, and then subjected to HPLC to measure the concentration of 9-((1R,2R,3S)-2,3-bis(hydroxymethyl)-1cyclobutyl) guanine (Compound 1a, wherein B^1 =9-guanyl), from which maximum concentration (Cmax), time of maximum concentration (Tmax) and the area under the concentration curve (AUC) were determined.
Column: Cosmosil 5C18-P (Nacalai Tesque, 250 mm×4.6 mm, i.d.)
Solvent: 0.1. M citric acid (pH 4): acetonitrile:methanol=50:2:1

Data set [2] concerns hepatitis B virus (HBV). In words: Antiviral activity against HBV, inhibition of HBV DNA synthesis in HB611 cells (Method 3). The class given is cell-based. The settings on record: 360 h, 50% inhibition of HBV DNA synthesis, 15 days, read-out: ID50 HBV. Here is the method:
Antiviral activity against hepatitis B virus (HBV) which is a DNA virus was tested by the following method.
The test was done by using a cell line, HB611, that was established by transfection and continuously produces HBV like particles [Proc. Natl. Acad. Sci. USA, 84, 444-449, 1987]. HB611 cells were maintained in Dulbecco's modified Eagle medium (Gibco) supplemented with 10% fetal bovine serum (Gibco), 100 μg/ml of streptomycin, 100 IU ml of benzyl penicillin (Gibco) and 200 μg/ml of geneticin (Gibco) at 37° C. in 5% CO2 -95% air.
The cells were seeded in 24-well plate (Corning) at a density of 3×10^4 cells/well, using 1.0 ml of the medium. After 2 days of incubation, the medium was replaced with the same medium containing the test compound. The cells were incubated for a further 15 days, during which time the medium containing the drug was exchanged every three days. The cells were then harvested and cellular DNA was prepared [Virology, 169, 213-216, 1989], and digested with restriction enzyme Hind III (Takara Shuzo Co., Ltd.). An aliquot (2-3 μg) was electrophoresed in 1.5% agarose gel, followed by blotting onto a nylon membrane Hybond-N^+ according to Southern [J. Mol. Biol., 98, 503-517, 1975]. The filter was hybridized to random primed 32p labeled HBV DNA probe, and washed twice with 2× standard saline citrate containing 0.1% SDS at 65° C. for 30 min. It was then autoradiographed, and the results were analyzed using a densitometric analyzer (Shimadzu, Chromatoscana S930).
To quantitatively evaluate the inhibitory activity of the compounds, we measured the band areas S, D1, D2 (S, D1 and D2 represent intracellular free HBV DNA derived from replicative intermediates) and I (represents chromosomally integrated HBV DNA) by densitometric analyzer, and calculated the inhibition percentage as follows: [formula]
In table 1, antiviral activity is represented by 50% inhibition doses (ID50) on HBV DNA synthesis.

The subject of data set [3] is Herpes simplex 1 virus (HSV-1). In words: Antiviral activity against HSV-1, CPE inhibition in Vero cells (Method 1). The note with it: Human alphaherpesvirus 1, 50% inhibition of CPE, about 72 hours, Neutral Red. The class given is cell-based. Here is the method: Antiviral activity against Herpes simplex 1 virus (HSV-1) which is a DNA virus was tested by the following method.
Vero cells (originated from kidney cells of African Green Monkey) were cultured in MEM medium to which 10% bovine embryo serum had been added. A cell suspension adjusted to a concentration of 200,000 cells/ml was spread onto 96 wells plate (COSTAR) and cultured for 24 hours so that the cells became confluent. To the medium drawn out was added HSV-1 virus, and it was infected for one hour. Then, the virus fluid was drawn out and cultured for about 72 hours in a fresh medium containing agents. The alive cells were stained with a staining solution containing Neutral Red and absorbance at a wavelength of 546 nm (A546) was measured to evaluate the cytopathic effect (CPE).
CPE inhibition (%) was calculated according to the following equation: [formula] and a quantity of sample enough for 50% inhibition of the CPE due to virus was taken as IC50 (μg/ml).

In data set [4] the test system is human cytomegalo-virus (HCMV). Kind of data set: Antiviral activity against HCMV, plaque reduction in human embryonic fibroblasts (Method 2). The note with it: Human betaherpesvirus 5, Fibroblast, plaque number reduced to 50%, 9 or 10 days. The data set is classed as cell-based. Here is the method: Antiviral activity against human cytomegalo-virus (HCMV) which is a DNA virus was tested by the following method.
Confluent monolayers of human embryonic fibroblasts in plastic dishes (diameter: 35 mm) were infected with 100 to 150 plaque forming units of HCMV. After an 1-hour adsorption period at 37° C., the cultures were overlaid with 2 ml of 0.5% agarose in Eagle's minimum essential medium containing 3% fetal calf serum and various concentrations of drugs. The cultures infected with HCMV were fixed and stained at 9 or 10 days after infection. The second agarose overlay containing appropriate concentrations of drugs was added 5 days after infection. Plaque numbers were counted by using a dissecting microscope at ×20 magnification. The antiviral activities of drugs were expressed in terms of median effective concentrations (EC50) which were defined as the drug concentrations that reduced the number of plaques to 50%.

`Nc1nc2c(ncn2[C@@H]2C[C@H](CO)[C@H]2COP(=O)(O)Oc2ccccc2)c(=O)[nH]1` [Compound 13, 9-[(1R,2R,3S)-3-hydroxymethyl-2-(hydroxy-(phenoxy)phosphoryl)oxymethyl-1-cyclobutyl]-guanine]: in data set [1], the “AUC, intravenous injection” value is 2962 ng·h/mL; the “Tmax, intravenous injection” value is 10 '; the “AUC, oral administration” value is 1122 ng·h/mL; the “Tmax, oral administration” value is 30 '.
With `Nc1nc2c(ncn2[C@@H]2C[C@H](COP(=O)(O)Oc3ccccc3)[C@H]2CO)c(=O)[nH]1` [Compound 14, 9-[(1R,2R,3S)-2-hydroxymethyl-3-(hydroxy-(phenoxy)phosphoryl)oxymethyl-1-cyclobutyl]-guanine], in data set [1], the “AUC, intravenous injection” value turned out to be 5076 ng·h/mL; the “Tmax, intravenous injection” value was 10 '; the “AUC, oral administration” value was 2262 ng·h/mL; the “Tmax, oral administration” value is listed as 30 '.
Broadly, the EC50 is the concentration needed to bring the measured effect to its halfway point. Low readings indicate higher potency in that assay, high ones lower potency in that assay. In the case of `Nc1nc2c(ncn2[C@@H]2C[C@H](COP(=O)(O)Oc3ccccc3Cl)[C@H]2CO)c(=O)[nH]1` [Compound 50, 9-[(1R,2R,3S)-2-hydroxymethyl-3-(hydroxy(2-chlorophenoxy)phosphoryl)oxymethyl-1-cyclobutyl]-guanine], in data set [1], the “AUC, intravenous injection” value came out at 3177 ng·h/mL; the “Tmax, intravenous injection” value is listed as 10 '; the “AUC, oral administration” value is 1526 ng·h/mL; the “Tmax, oral administration” value is on record as 30 '. Besides, the IC50 in data set [2] was about 0.1 µg/mL (≈ 0.219 µM). The compound further had an IC50 in data set [3] of 1.13 µg/mL (≈ 2.48 µM). Further, in data set [4], the EC50 is 1 to 3 µg/mL (≈ 2.19 to 6.58 µM).
For the compound `Nc1nc2c(ncn2[C@@H]2C[C@H](COP(=O)(O)Oc3cccc(Cl)c3)[C@H]2CO)c(=O)[nH]1` [Compound 53, 9[-(1R,2R,3S)-2-hydroxymethyl-3-(hydroxy(3-chlorophenoxy)phosphoryl)oxymethyl-1-cyclobutyl]-guanine], in data set [1], the “AUC, intravenous injection” value was found to be 3228 ng·h/mL; the “Tmax, intravenous injection” value is on record as 10 '; the “AUC, oral administration” value stood at 1405 ng·h/mL; the “Tmax, oral administration” value is 30 '. For the same compound, the IC50 in data set [2] is 0.1 to 1 µg/mL (≈ 0.219 to 2.19 µM). In data set [3], this compound had an IC50 of 1.22 µg/mL (≈ 2.68 µM). This compound showed an EC50 in data set [4] of 1 to 3 µg/mL (≈ 2.19 to 6.58 µM).
`Nc1nc2c(ncn2[C@@H]2C[C@H](COP(=O)(O)Oc3ccc(Cl)cc3)[C@H]2CO)c(=O)[nH]1` [Compound 56, 9-[(1R,2R,3S)-2-hydroxymethyl-3-(hydroxy(4-chlorophenoxy)phosphoryl)oxymethyl-1-cyclobutyl]-guanine]: in data set [1], the “AUC, intravenous injection” value was 3167 ng·h/mL; the “Tmax, intravenous injection” value is recorded as 10 '; the “AUC, oral administration” value was 1762 ng·h/mL; the “Tmax, oral administration” value was 10 '. Also, the IC50 in data set [2] fell in the range of 0.1 to 1 µg/mL (≈ 0.219 to 2.19 µM). The compound also registered an IC50 in data set [3] of 0.699 µg/mL (≈ 1.53 µM). The same compound had an EC50 in data set [4] of 1 to 3 µg/mL (≈ 2.19 to 6.58 µM).
In the case of `Nc1nc2c(ncn2[C@@H]2C[C@H](COP(=O)(O)Oc3ccc(F)cc3)[C@H]2CO)c(=O)[nH]1` [Compound 65, 9-[(1R,2R,3S)-2-hydroxymethyl-3-(hydroxy(4-fluorophenoxy)phosphoryl)oxymethyl-1-cyclobutyl]-guanine], in data set [1], the “AUC, intravenous injection” value amounted to 6373 ng·h/mL; the “Tmax, intravenous injection” value is reported as 10 '; the “AUC, oral administration” value was 1712 ng·h/mL; the “Tmax, oral administration” value is reported as 30 '. Moreover, in data set [2], the IC50 lay in the range of 0.1 to 1 µg/mL (≈ 0.228 to 2.28 µM). For the same compound, the IC50 in data set [3] was 1.13 µg/mL (≈ 2.57 µM). Further, the EC50 in data set [4] fell in the range of 1 to 3 µg/mL (≈ 2.28 to 6.83 µM).
Regarding `Cc1ccc(OP(=O)(O)OC[C@H]2C[C@@H](n3cnc4c(=O)[nH]c(N)nc43)[C@@H]2CO)cc1` [Compound 68, 9-[(1R,2R,3S)-2-hydroxymethyl-3-(hydroxy(4-methylphenoxy)phosphoryl)oxymethyl-1-cyclobutyl]-guanine], in data set [1], the “AUC, intravenous injection” value stood at 4116 ng·h/mL; the “Tmax, intravenous injection” value is reported as 10 '; the “AUC, oral administration” value turned out to be 1754 ng·h/mL; the “Tmax, oral administration” value is 30 '. The IC50 in data set [2] was 0.1 to 1 µg/mL (≈ 0.23 to 2.3 µM). In data set [3], this compound showed an IC50 of 1.26 µg/mL (≈ 2.89 µM). In data set [4], this compound gave an EC50 of 0.1 to 1 µg/mL (≈ 0.23 to 2.3 µM).
Regarding `COc1ccc(OP(=O)(O)OC[C@H]2C[C@@H](n3cnc4c(=O)[nH]c(N)nc43)[C@@H]2CO)cc1` [Compound 71, 9-[(1R,2R,3S)-2-hydroxymethyl-3-(hydroxy(4-methoxyphenoxy)phosphoryl)oxymethyl-1-cyclobutyl]-guanine], in data set [1], the “AUC, intravenous injection” value is 4393 ng·h/mL; the “Tmax, intravenous injection” value was 10 '; the “AUC, oral administration” value turned out to be 1678 ng·h/mL; the “Tmax, oral administration” value is reported as 10 '. Further, in data set [2], the IC50 lay within 0.1 to 1 µg/mL (≈ 0.222 to 2.22 µM). The IC50 in data set [3] was 0.873 µg/mL (≈ 1.93 µM). Further, in data set [4], the EC50 was in the range of 0.1 to 1 µg/mL (≈ 0.222 to 2.22 µM).
